Measurements from US20120214862A1, “MODULATION OF FACTOR 7 EXPRESSION” (ISIS Pharmaceuticals, Inc., priority 2009, published 2012).
In the oligonucleotide strings, read from the 5' end, every base follows the letter of its sugar. An asterisk marks phosphorothioate; unmarked linkages are phosphodiester. Other units and linkages are bracketed, terminal groups are in braces. A string of capitals states the bases alone. e = 2'-O-(2-methoxyethyl) (MOE); [5mC] = 5-methylcytosine; d = 2'-deoxy (DNA)

Columns and labels:
Assay type in all cases: cell-based
human Factor 7 mRNA [1] = assay: Antisense inhibition of human Factor 7 mRNA in HepB3 cells, lipofectin, 50 nM, real-time RT-PCR; details: HepB3 cells
Outline: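 Percent inhibition of Factor 7 mRNA, relative to untreated control, comes from real-time RT-PCR with RIBOGREEN normalization, using primer probe set RTS 2927 in some runs. RNA was taken roughly 24 h after lipofectin delivery of 50 nM oligonucleotide into HepB3 cells.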

human Factor 7 mRNA [2] = assay: Dose-dependent antisense inhibition of human Factor 7 in HepB3 cells, transfection with electroporation
Description: (§1) The gapmers were also transfected via electroporation and their dose-dependent inhibition of human Factor 7 mRNA was measured. Cells were plated at a density of 20,000 cells per well and transfected via electroporation with 3.125 μM, 6.25 μM, 12.5 μM, 25 μM, 50 μM, and 100 μM concentrations of antisense oligonucleotide, as specified in Table 15. After a treatment period of approximately 16 hours, RNA was isolated from the cells and Factor 7 mRNA levels were measured by quantitative real-time PCR. Human Factor 7 primer probe set RTS 2927 was used to measure mRNA levels. Factor 7 mRNA levels were adjusted according to total RNA content, as measured by RIBOGREEN®. Results are presented as percent inhibition of Factor 7, relative to untreated control cells.
as §1, with “Cells were” for “The gapmers were also transfected via electroporation and their dose-dependent inhibition of human Factor 7 mRNA was measured. Cells were”, “in Table 16. After a” for “in Table 15. After a”, “cells and human Factor 7” for “cells and Factor 7”

human Factor 7 mRNA [3] = assay: Dose-dependent antisense inhibition of human Factor 7 in HepB3 cells, transfection with lipofectin; details: lipofectin, HepB3 cells, 16 hours
Outline: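 HepB3 cells (4,000/well) lipofectin-transfected with antisense oligonucleotide at 3.125 or 6.25 up to 100 nM for ~16 h. Factor 7 mRNA measured by real-time RT-PCR with primer probe set RTS 2927, adjusted to RIBOGREEN total RNA; expressed as percent inhibition versus untreated control cells.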

[4] = gapmers (5-10-5, 3-14-3, 2-13-5 MOE) targeted to nucleobases 4868 to 4899 of SEQ ID NO: 1
[5] = 3.125 μM, 16 hours (Example 7, Table 15)
[6] = 6.25 μM, 16 hours (Example 7, Table 15)
[7] = 12.5 μM, 16 hours (Example 7, Table 15)
[8] = 25 μM, 16 hours (Example 7, Table 15)
[9] = 50 μM, 16 hours (Example 7, Table 15)
[10] = 100 μM, 16 hours (Example 7, Table 15)
[11] = 3.125 μM, 16 hours (Example 8, Table 16)
[12] = 6.25 μM, 16 hours (Example 8, Table 16)
[13] = 12.5 μM, 16 hours (Example 8, Table 16)
[14] = 25 μM, 16 hours (Example 8, Table 16)
[15] = 50 μM, 16 hours (Example 8, Table 16)
[16] = 100 μM, 16 hours (Example 8, Table 16)
[17] = gapmers targeted to nucleobases 15188 to 15211 of SEQ ID NO: 1 (Table 13)
[18] = gapmers targeted to nucleobases 13760 to 13789 of SEQ ID NO: 1 (Table 10)

Substance | % Inhibition of human Factor 7 mRNA levels (human Factor 7 mRNA [1]; [4]) | percent inhibition of Factor 7 mRNA, relative to untreated control cells (human Factor 7 mRNA [2]; [5]) | percent inhibition of Factor 7 mRNA, relative to untreated control cells (human Factor 7 mRNA [2]; [6]) | percent inhibition of Factor 7 mRNA, relative to untreated control cells (human Factor 7 mRNA [2]; [7]) | percent inhibition of Factor 7 mRNA, relative to untreated control cells (human Factor 7 mRNA [2]; [8]) | percent inhibition of Factor 7 mRNA, relative to untreated control cells (human Factor 7 mRNA [2]; [9]) | percent inhibition of Factor 7 mRNA, relative to untreated control cells (human Factor 7 mRNA [2]; [10]) | percent inhibition of Factor 7 mRNA, relative to untreated control cells (human Factor 7 mRNA [3]; 3.125 nM) | percent inhibition of Factor 7 mRNA, relative to untreated control cells (human Factor 7 mRNA [3]; 12.5 nM) | percent inhibition of Factor 7 mRNA, relative to untreated control cells (human Factor 7 mRNA [3]; 25 nM) | percent inhibition of Factor 7 mRNA, relative to untreated control cells (human Factor 7 mRNA [3]; 50 nM) | percent inhibition of Factor 7 mRNA, relative to untreated control cells (human Factor 7 mRNA [3]; 100 nM) | percent inhibition of Factor 7 mRNA, relative to untreated control cells (human Factor 7 mRNA [3]) | percent inhibition of Factor 7 mRNA, relative to untreated control cells (human Factor 7 mRNA [2]; [11]) | percent inhibition of Factor 7 mRNA, relative to untreated control cells (human Factor 7 mRNA [2]; [12]) | percent inhibition of Factor 7 mRNA, relative to untreated control cells (human Factor 7 mRNA [2]; [13]) | percent inhibition of Factor 7 mRNA, relative to untreated control cells (human Factor 7 mRNA [2]; [14]) | percent inhibition of Factor 7 mRNA, relative to untreated control cells (human Factor 7 mRNA [2]; [15]) | percent inhibition of Factor 7 mRNA, relative to untreated control cells (human Factor 7 mRNA [2]; [16]) | further results
422140 (antisense eG*eT*eT*e[5mC]*eT*dG*d[5mC]*dA*dG*dG*dA*dG*d[5mC]*dG*dG*e[5mC]*e[5mC]*eT*eA*eA) [compound 422140] | 74% | 29% | 34% | 51% | 64% | 69% | 77% | 18% | 49% | 64% | 74% | 74% | 35% | – | – | – | – | – | – | –
422142 (antisense eG*eA*eG*eT*eT*d[5mC]*dT*dG*d[5mC]*dA*dG*dG*dA*dG*d[5mC]*eG*eG*e[5mC]*e[5mC]*eT) [compound 422142] | 73% | 26% | 47% | 63% | 67% | 77% | 78% | 16% | 51% | 66% | 72% | 68% | 34% | 34% | 47% | 62% | 67% | 65% | 65% | –
422150 (antisense eG*e[5mC]*eA*dT*dG*dG*dT*dG*dA*dT*dG*d[5mC]*dT*dT*d[5mC]*dT*dG*eA*eA*eT) [compound 422150] | – | 17% | 20% | 40% | 54% | 68% | 83% | 9% | 38% | 59% | 79% | 87% | 23% | 0% | 31% | 53% | 67% | 77% | 86% | % Inhibition of human Factor 7 mRNA levels (human Factor 7 mRNA [1]; [17]): 74%
422152 (antisense eA*eT*eG*d[5mC]*dA*dT*dG*dG*dT*dG*dA*dT*dG*d[5mC]*dT*dT*d[5mC]*eT*eG*eA) [compound 422152] | – | 14% | 22% | 32% | 44% | 65% | 76% | 18% | 47% | 67% | 83% | 89% | 29% | – | – | – | – | – | – | % Inhibition of human Factor 7 mRNA levels (human Factor 7 mRNA [1]; [17]): 74%
422177 (antisense e[5mC]*e[5mC]*e[5mC]*dG*d[5mC]*d[5mC]*dG*dG*d[5mC]*dT*d[5mC]*dT*dG*d[5mC]*dT*d[5mC]*dA*eT*e[5mC]*e[5mC]) [compound 422177] | – | 3% | 10% | 29% | 21% | 31% | 63% | 12% | 44% | 64% | 81% | 88% | 24% | – | – | – | – | – | – | % Inhibition of human Factor 7 mRNA levels (human Factor 7 mRNA [1]; [18]): 74%
422183 (antisense eG*e[5mC]*eG*d[5mC]*d[5mC]*dA*d[5mC]*d[5mC]*d[5mC]*dG*d[5mC]*d[5mC]*dG*dG*d[5mC]*dT*d[5mC]*eT*eG*e[5mC]) [compound 422183] | – | 16% | 28% | 37% | 44% | 59% | 71% | 28% | 56% | 78% | 84% | 88% | 37% | 2% | 3% | 24% | 50% | 64% | 71% | % Inhibition of human Factor 7 mRNA levels (human Factor 7 mRNA [1]; [18]): 79%
422215 (antisense eG*eT*eT*d[5mC]*dT*dG*d[5mC]*dA*dG*dG*dA*dG*d[5mC]*dG*dG*d[5mC]*d[5mC]*eT*eA*eA) [compound 422215] | 73% | 11% | 9% | 31% | 50% | 68% | 84% | 13% | 54% | 65% | 84% | 82% | 30% | – | – | – | – | – | – | –
